Assay results published in publication PMC7144022, “Quinolinecarboxamides Inhibit the Replication of the Bovine Viral Diarrhea Virus by Targeting a Hot Spot for the Inhibition of Pestivirus Replication in the RNA-Dependent RNA Polymerase” (Molecules, 2020).
Several values for one entry are separate records, joined by “and”; a condition that tells them apart may be missing. Identical values can stand only once.

What was measured:
[1] = Cytotoxicity assay, proliferation of exponentially growing MDBK cells (MTS/PMS); assay type: cell-based, bovine; details: bovine
Method: (§1) Assays were carried out, as described previously.

BVDV-1 (strain NADL) = test: microbe, parasite or virus in culture; assay type: cell-based, bovine viral diarrhea virus (BVDV); details: Bovine viral diarrhea virus isolates and strains; RT-qPCR, MDBK cells
[2] = biological target: T1, BVDV (NADL) RNA-dependent RNA polymerase (RdRp) (Bovine viral diarrhea virus, UniProt P19711); test: RNA-dependent RNA polymerase assay, poly(C) template; assay type: biochemical; details: purified RdRp, up to 500 µM
T1 construct: BVDV (NADL) RNA-dependent RNA polymerase (RdRp) was expressed and purified; made in house
Method: BVDV (NADL) RNA-dependent RNA polymerase (RdRp) was expressed and purified, as described before. […] In brief, the purified BVDV polymerase (100 nM) was mixed with 100 µM GTP (containing 8.3 µM of [^3H]GTP, Perkin Elmer) and increasing concentration of the inhibitor (0.2 µM, 0.7 µM, 2 µM, 6 µM, 19 µM, 56 µM, 165 µM or 500 µM) in 50 mM Hepes pH 8.0, 10 mM KCl, 10 mM DTT, 1 mM MgCl2, 2mM MnCl2, and 0.5% igepal (Sigma). The enzyme mix and inhibitors were pre-incubated, in order to favor enzyme-inhibitor interactions before RNA binding. Reactions were started by the addition of 100 nM of poly(C) (about 500 nt in size) template. Reactions were incubated at 30 °C and stopped by addition of 50 mM EDTA. Samples were transferred onto DE-81 filters, washed with 0.3 M ammonium formate solution, and dried. Radioactivity bound to the filter was determined by liquid scintillation counting.

[3] = biological target: BVDV WT replication complexes (Bovine viral diarrhea virus, UniProt P19711); test: Replication complex (RC) assay, wild-type BVDV; assay type: biochemical; details: for effect on activity of BVDV WT replication complexes: RCs isolated 14 h post-infection
Method: (§2) The replication complex (RC) assay is similar to the one described before. In brief, BVDV-infected MDBK cells were suspended in an ice-cold hypotonic buffer A (10 mM Tris, 10 mM NaCl pH 7.8) and were further disrupted by 50 strokes with a Dounce homogenizer. The disrupted cells were pelleted by centrifugation at 1,000× g for 5 min at 4 °C. The supernatant fraction, containing cytoplasmic material and plasma membranes, was concentrated by high-speed centrifugation at 200,000× g for 20 min at 4 °C. The pellet was resuspended in 120 µL of hypotonic buffer B (10 mM Tris, 10 mM NaCl pH 7.8 and 15% glycerol) and used for an RNA polymerase assay. Replicase reactions were carried out, as described before, with some modifications. The [α-^33P]UTP (3,000 mCi/mmol) was replaced by [α-^33P]CTP (3,000 mCi/mmol). The following incubation, RNA extraction, RNA analysis, and quantification were performed, as previously described.

[4] = test system: RCs from MDBK cells infected with the TO505-6180res virus; test: Replication complex (RC) assay, TO505-6180res BVDV; assay type: biochemical, bovine viral diarrhea virus (BVDV); details: RCs from TO505-6180res infected MDBK cells
Method: as §2

[5] = test system: classical swine fever virus (CSFV); assay type: cell-based
hepatitis C virus = test: In vitro activity against hepatitis C virus; assay type: cell-based
[6] = test system: panel of unrelated RNA and DNA viruses; test: Activity against a panel of unrelated RNA and DNA viruses; assay type: cell-based; details: data not shown
BVDV NADL virus = test: CPE-based antiviral assay, BVDV NADL in MDBK cells (MTS/PMS); details: for S.I.: selectivity index, CC50 vs EC50; for fold increase: sheet CSFCII#, potency relative to TO502-2403 (EC50 0.2 µM)
MDBK cells = test: Cytotoxicity assay, proliferation of exponentially growing MDBK cells (MTS/PMS); assay type: cell-based, bovine; details: 5 days
Method: as §1

[7] = Bovine viral diarrhea virus isolates and strains, MDBK, 72 h
[8] = protection against BVDV (NADL, wild type)-induced CPE in MDBK cells, 3 days

Sequence of BVDV WT replication complexes (P19711 3270-3988, one chain of several): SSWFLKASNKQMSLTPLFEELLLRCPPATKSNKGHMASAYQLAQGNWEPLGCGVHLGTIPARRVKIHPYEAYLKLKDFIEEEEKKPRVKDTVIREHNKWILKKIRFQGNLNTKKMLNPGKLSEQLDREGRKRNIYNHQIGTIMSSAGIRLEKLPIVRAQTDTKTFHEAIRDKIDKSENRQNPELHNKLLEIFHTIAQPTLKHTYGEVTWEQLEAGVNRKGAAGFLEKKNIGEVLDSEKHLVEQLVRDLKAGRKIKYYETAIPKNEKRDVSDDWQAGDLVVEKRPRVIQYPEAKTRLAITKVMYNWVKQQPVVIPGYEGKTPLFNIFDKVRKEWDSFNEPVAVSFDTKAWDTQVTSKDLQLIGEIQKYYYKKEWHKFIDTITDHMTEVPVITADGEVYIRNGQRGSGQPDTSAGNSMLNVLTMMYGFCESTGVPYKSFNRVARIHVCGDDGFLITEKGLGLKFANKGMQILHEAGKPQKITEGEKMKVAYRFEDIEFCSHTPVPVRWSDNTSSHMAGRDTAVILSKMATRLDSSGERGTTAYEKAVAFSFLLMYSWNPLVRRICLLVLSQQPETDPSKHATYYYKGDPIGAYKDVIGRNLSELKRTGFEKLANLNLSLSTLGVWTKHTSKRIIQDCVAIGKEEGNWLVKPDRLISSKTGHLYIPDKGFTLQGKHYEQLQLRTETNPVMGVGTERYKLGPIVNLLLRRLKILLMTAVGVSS
T1 sequence (P19711 3270-3988): as the sequence (P19711 3270-3988, one chain of several) above

Molecule	CC50 at 5 days [1] [nM]	EC50 (BVDV-1 (strain NADL))	effect on the activity of the viral polymerase [2]	effect on activity of BVDV WT replication complexes [3]	fold less susceptible than BVDV wt RCs [4] [fold]	inhibition of in vitro CSFV replication [5]	in vitro activity against hepatitis C virus (hepatitis C virus)	activity against a panel of unrelated RNA and DNA viruses [6]	EC50 (BVDV NADL virus; [7]) [nM]	CC50 (MDBK cells) [nM]	EC50 (BVDV NADL virus; [8]) [nM]	S.I. (BVDV NADL virus)	fold increase (BVDV NADL virus)	inhibition at 10 µM ([3]; at 10 µM, read-out: maximum inhibition of BVDV WT replication complex activity) [%]
Cc1ccc2nc(NC(=O)c3cc(-c4ccco4)nc4ccccc34)sc2c1 [TO505-6180, 2-(2-furanyl)-N-(6-methyl-2-benzothiazolyl)-4-Quinolinecarboxamide]	> 100000	30 nM and 60 nM	no effect	inhibited the activity of the BVDV wt RCs in a dose-dependent manner	3 to 4	inhibited	inactive	inactive	70					
O=C(Nc2cc(c1ccccc1)nn2)c4cc(nc3ccc(F)cc34)c5cccs5 [CSFC-124]										> 100000	22000	5	0.00909	
Cc1cccc2sc(nc12)NC(=O)c4cc(nc3ccccc34)c5cccn5 [CSFC-59]										> 100000	54000	2	0.0037	
O=C(Nc1ccn(-c2ccccc2)n1)c1cc(-c2ccccc2)nc2ccccc12 [TO502-2403, 2-phenyl-N-(1-phenyl-1H-pyrazol-3-yl)-4-Quinolinecarboxamide]	> 100000	60 nM and 50 nM	no effect	inhibited the activity of the BVDV WT replication complexes in a dose-dependent manner		inhibited	inactive	inactive	200					~90
